A word on the EC50: it is the concentration at which the effect is half-maximal.

One test has as its target T1, human TPO receptor (hTPOR) (Homo sapiens, UniProt P40238).
T1 construct: expressed in transfected cells; host or cells: BaF-B03 (murine IL-3 dependent cell line)
T1 sequence (P40238 26-635): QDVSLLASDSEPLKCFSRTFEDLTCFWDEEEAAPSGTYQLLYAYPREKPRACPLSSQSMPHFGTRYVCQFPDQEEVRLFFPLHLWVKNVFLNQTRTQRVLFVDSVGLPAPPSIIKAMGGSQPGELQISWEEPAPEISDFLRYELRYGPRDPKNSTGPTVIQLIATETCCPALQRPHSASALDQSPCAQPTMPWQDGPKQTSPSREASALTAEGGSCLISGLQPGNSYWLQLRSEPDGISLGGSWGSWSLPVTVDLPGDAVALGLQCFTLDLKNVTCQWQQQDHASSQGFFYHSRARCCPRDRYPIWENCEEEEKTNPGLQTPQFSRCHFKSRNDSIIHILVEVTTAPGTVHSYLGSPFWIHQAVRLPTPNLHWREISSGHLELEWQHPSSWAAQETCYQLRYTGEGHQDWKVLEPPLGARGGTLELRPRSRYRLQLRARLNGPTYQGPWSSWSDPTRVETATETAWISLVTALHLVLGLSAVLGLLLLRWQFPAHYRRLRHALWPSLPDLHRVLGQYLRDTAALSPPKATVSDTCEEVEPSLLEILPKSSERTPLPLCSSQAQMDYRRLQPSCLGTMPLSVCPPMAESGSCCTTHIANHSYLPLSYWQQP
Put plainly: Thrombopoietic activity: proliferation of TPO dependent BaF/hTPOR cells (WST-1, absorbance at 450 nm). The format is cell-based. The following applies: 20 h + 4 h WST-1, ED50 = half concentration of the concentration showing the maximum thrombopoietic activity, Table 1. The method in brief: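 Proliferation read-out: WST-1 absorbance at 450 nm after 20 h compound exposure plus 4 h reagent, using IL-3-deprived BaF/hTPOR cells (5×10^4 per well) dependent on human TPO receptor signalling. ED50 defined as half the concentration producing maximal activity.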
Background: Tetrazolium assays rely on reduction of a dye to a coloured formazan, in cell work by metabolically active cells.
Turning to `CC(=Cc1c(F)cc(C(=O)Nc2nc(-c3cccc(CCCOCCC4CCCC4)c3F)cs2)cc1F)C(=O)O` [Compound B44, 3-[4-(4-{3-[3-(2-cyclopentylethyloxy)propyl]-2-fluorophenyl}thiazol-2-ylcarbamoyl}-2,6-difluorophenyl)-2-methylacrylic acid], the EC50 is 1.27 nM. Still for that read-out and setting: with `CCCCCCCOCCc1cccc(-c2csc(NC(=O)c3cc(F)c(/C=C(\OC)C(=O)O)c(F)c3)n2)c1OC` [Compound B1953, (Z)-3-(2,6-difluoro-4-{4-[3-(2-heptyloxyethyl)-2-methyloxyphenyl]thiazol-2-ylcarbamoyl}phenyl)-2-methyloxyacrylic acid] the figure was 10.1 nM; with `CCCCOC(CC)c1cccc(-c2csc(NC(=O)c3cc(F)c(C=C(C)C(=O)O)c(F)c3)n2)c1F` (stereo not drawn) [Compound B37, 3-(4-{4-[3-(1-n-butyloxypropyl)-2-fluorophenyl]thiazol-2-ylcarbamoyl}-2,6-difluorophenyl)-2-methylacrylic acid], 0.88 nM. On the same count and under the same terms, with `CCCCCOCCc1cccc(-c2csc(NC(=O)c3cc(Cl)c(/C=C(\C)C(=O)O)c(Cl)c3)n2)c1OC` [Compound B1925, (E)-3-(2,6-dichloro-4-{4-[2-methyloxy-3-(2-pentyloxyethyl)phenyl]thiazol-2-ylcarbamoyl)phenyl)-2-methylacrylic acid] the figure was 18.4 nM.

As to `CCCCCCOC(C)c1cccc(-c2csc(NC(=O)c3cc(Cl)c(C=C(C)C(=O)O)c(Cl)c3)n2)c1F` (stereo not drawn) [Compound B99, 3-(2,6-dichloro-4-{4-[2-fluoro-3-(1-n-hexyloxyethyl)phenyl]thiazol-2-ylcarbamoyl)phenyl]-2-methylacrylic acid], the concentration for a half-maximal effect (EC50) is 0.59 nM.

Consider `COc1c(CCCOCC2CCCC2)cccc1-c1csc(NC(=O)c2cc(F)c(/C=C(\C)C(=O)O)c(F)c2)n1` [Compound B1948, (E)-3-(4-{4-[3-(3-cyclopentylmethyloxypropyl)-2-methyloxyphenyl]thiazol-2-ylcarbamoyl}-2,6-difluorophenyl)-2-methylacrylic acid], for which the EC50 turned out to be 10.9 nM. The same measure, in the same setting: under `CCCCOCCCc1cccc(-c2csc(NC(=O)c3cc(Cl)c(C=C(C)C(=O)O)c(Cl)c3)n2)c1F` [Compound B93, 3-(4-{4-[3-(3-n-butyloxypropyl)-2-fluorophenyl]thiazol-2-ylcarbamoyl}-2,6-dichlorophenyl]-2-methylacrylic acid] stands 0.91 nM. Regarding `CO/C(=C\c1c(F)cc(C(=O)Nc2nc(-c3cccc(CCOCCC(C)C)c3OC)cs2)cc1F)C(=O)O` [Compound B1956], the EC50 turned out to be 15.1 nM. Consider `CCCC(CCC)(OC)c1cccc(-c2csc(NC(=O)c3cc(F)c(C=C(C)C(=O)O)c(F)c3)n2)c1F` [Compound B8], for which the EC50 was determined as 4 nM. In the case of `CCCCCc1cccc2c1CCc1sc(NC(=O)c3cc(F)c(C=C(C)C(=O)O)c(F)c3)nc1-2` [Compound A2, 3-[2,6-difluoro-4-(4,5-dihydro-6-pentylnaphtho[1,2-d]thiazol-2-ylcabamoyl)phenyl]-2-methylacrylic acid], the EC50 is 4 nM. Same read-out and setting: with `CCCCCCCOCCc1cccc(-c2csc(NC(=O)c3cc(F)c(/C=C(\C)C(=O)O)c(F)c3)n2)c1OC` [Compound B1952, (E)-3-(2,6-difluoro-4-{4-[3-(2-heptyloxyethyl)-2-methyloxyphenyl]thiazol-2-ylcarbamoyl}phenyl)-2-methylacrylic acid] the figure was 10.1 nM. Still for that read-out and setting: with `CCCCCCCCCCOCc1cccc(-c2csc(NC(=O)c3cc(Cl)c(C=C(C)C(=O)O)c(Cl)c3)n2)c1F` [Compound B76, 3-{2,6-dichloro-4-[4-(3-n-decyloxymethyl-2-fluorophenyl)thiazol-2-ylcarbamoyl]phenyl}-2-methylacrylic acid] the figure was 2.98 nM. Take `CCCCCOC(CCCC)c1cccc(-c2csc(NC(=O)c3cc(F)c(C=C(C)C(=O)O)c(F)c3)n2)c1F` (stereo not drawn) [Compound B26, 3-(2,6-difluoro-4-{4-[2-fluoro-3-(1-n-pentyloxypentyl)phenyl]thiazol-2-ylcarbamoyl}phenyl)-2-methylacrylic acid]: the EC50 amounted to 0.39 nM. As to `CCOCCCCOC(CC)c1cccc(-c2csc(NC(=O)c3cc(Cl)c(C=C(C)C(=O)O)c(Cl)c3)n2)c1F` (stereo not drawn) [Compound B65, 3-[2,6-dichloro-4-(4-{3-[1-(4-ethyloxybutyloxy)propyl]-2-fluorophenyl]thiazol-2-ylcarbamoyl}phenyl)-2-methylacrylic acid], the EC50 amounted to 1.04 nM.

`CCC(CC)COCc1cccc(-c2csc(NC(=O)c3cc(F)c(/C=C(\OC)C(=O)O)c(F)c3)n2)c1OC` [Compound B2024, (Z)-3-(4-{4-[3-(2-ethylbutyloxymethyl)-2-methyloxyphenyl]thiazol-2-ylcarbamoyl}-2,6-difluorophenyl)-2-methyloxyacrylic acid]: the EC50 worked out at 9.96 nM. Take `COc1c(CCCOCCC(C)(C)C)cccc1-c1csc(NC(=O)c2cc(F)c(/C=C(\C)C(=O)O)c(F)c2)n1` [Compound B521, (E)-3-[4-(4-{3-[3-(3,3-dimethylbutyloxy)propyl]-2-methyloxyphenyl}thiazol-2-ylcarbamoyl}-2,6-difluorophenyl)-2-methylacrylic acid]: the EC50 is 16.9 nM.

On to `CCCCCOC(C)c1cccc(-c2csc(NC(=O)c3cc(F)c(C=C(C)C(=O)O)c(F)c3)n2)c1F` (stereo not drawn) [Compound B31, 3-(2,6-difluoro-4-{4-[2-fluoro-3-(1-n-pentyloxyethyl)phenyl]thiazol-2-ylcarbamoyl}phenyl)-2-methylacrylic acid], for which the EC50 was 0.85 nM. On the same count and under the same terms, under `CCCCCOC(c1cccc(-c2csc(NC(=O)c3cc(F)c(C=C(C)C(=O)O)c(F)c3)n2)c1F)C1CCCCC1` (stereo not drawn) [Compound B14, 3-(4-{4-[3-(1-cyclohexyl-1-n-pentyloxymethyl)-2-fluorophenyl]thiazol-2-ylcarbamoyl}-2,6-difluorophenyl)-2-methylacrylic acid] stands 0.73 nM; under `CC(=Cc1c(Cl)cc(C(=O)Nc2nc(-c3cccc(CCCOCCCC(C)C)c3F)cs2)cc1Cl)C(=O)O` [Compound B84, 3-[2,6-dichloro-4-(4-[2-fluoro-3-[3-(4-methylpentyloxy)propyl]phenyl]thiazol-2-ylcarbamoyl)phenyl]-2-methylacrylic acid], 1.02 nM; under `CCCCCCCC(OC)c1cccc(-c2csc(NC(=O)c3cc(F)c(C=C(C)C(=O)O)c(F)c3)n2)c1F` (stereo not drawn) [Compound B25, 3-(2,6-difluoro-4-{4-[2-fluoro-3-(1-methyloxyoctyl)phenyl]thiazol-2-ylcarbamoyl}phenyl)-2-methylacrylic acid], 0.93 nM. Consider `COC(c1cccc(-c2csc(NC(=O)c3cc(Cl)c(C=C(C)C(=O)O)c(Cl)c3)n2)c1F)C(C)(C)C` (stereo not drawn) [Compound B64, 3-(2,6-dichloro-4-{4-[2-fluoro-3-(1-methyloxy-2,2-dimethylpropyl)phenyl]thiazol-2-ylcarbamoyl}phenyl)-2-methylacrylic acid], for which the EC50 amounted to 1.19 nM. `COc1c(CCOCC2CCCCC2)cccc1-c1csc(NC(=O)c2cc(F)c(/C=C(\C)C(=O)O)c(F)c2)n1` [Compound B1957]: the EC50 was determined as 12.8 nM. The same measure, in the same setting: under `CCCCCC(OC)c1cccc(-c2csc(NC(=O)c3cc(F)c(/C=C(\C)C(=O)O)c(F)c3)n2)c1OC` (stereo not drawn) [Compound B347, (E)-3-(2,6-difluoro-4-{4-[2-methyloxy-3-(1-methyloxyhexyl)phenyl]thiazol-2-ylcarbamoyl}phenyl)-2-methylacrylic acid] stands 18.7 nM.

Still in this test, the particulars now being: 20 h + 4 h WST-1, ED50 = half concentration of the concentration showing the maximum thrombopoietic activity, Table 2.
For the compound `CCCCCCOCCc1cccc(-c2csc(NC(=O)c3cc(Cl)c(/C=C(\OC)C(=O)O)c(Cl)c3)n2)c1OC` [Compound B1929, (Z)-3-(2,6-dichloro-4-{4-[3-(2-hexyloxyethyl)-2-methyloxyphenyl]thiazol-2-ylcarbamoyl)phenyl)-2-methyloxyacrylic acid], the EC50 came to 25.8 nM. For the compound `CCCCCC(OC)c1cccc(-c2nc(NC(=O)c3cc(Cl)c(/C=C(\OC)C(=O)O)c(Cl)c3)sc2OC)c1F` (stereo not drawn) [Compound B1861, (Z)-3-(2,6-dichloro-4-{4-[2-fluoro-3-(1-methyloxyhexyl)phenyl]-5-methyoxythiazol-2-ylcarbamoyl}phenyl)-2-methyloxyacrylic acid], the EC50 came out at 22.8 nM.

For the compound `CO/C(=C\c1c(Cl)cc(C(=O)Nc2nc(-c3cccc(CCOCCCC(C)C)c3OC)cs2)cc1Cl)C(=O)O` [Compound B1923, (Z)-3-[2,6-dichloro-4-(4-{2-methyloxy-3-[2-(4-methylpentyloxy)ethyl]phenyl}thiazol-2-ylcarbamoyl)phenyl)-2-methyloxyacrylic acid], the EC50 stood at 20.2 nM.

Take `COc1cccc(-c2csc(NC(=O)c3cc(Cl)c(/C=C(\C)C(=O)O)c(Cl)c3)n2)c1F` [Compound B2018, (E)-3-{2,6-dichloro-4-[4-(2-fluoro-3-methyloxyphenyl)thiazol-2-ylcarbamoyl]phenyl}-2-methylacrylic acid]: the EC50 was found to be 23.5 nM.

The values are drawn from patent US7601746B2 (Shionogi & Co., Ltd., priority 2003, dated 2009).
